The term Papp B→A denotes how fast a substance crosses the layer from the basolateral side. The term half-life denotes how long it takes for the measured level to halve.

Active and inactive are the calls of the source. No cut-off for these calls is given here.

The subject of series [1] is Mus musculus. The series can be described thus: Toxicity in dextran sodium sulfate treated BALB/c mouse ulcerative colitis model assessed as reduction in thymus weight to body weight ratio at 5 mg/kg, po administered twice daily for 6 days relative to control. The class given is organism-based. Particulars: in vivo, 144 h. Details: dose 5 mg/kg, route oral.
A short description of series [2]: Stability in human gastric juice after 24 hrs. The class given is ADME, tissue-based.
Series [3] deals with Mus musculus. The series can be described thus: Inhibition of dextran sodium sulfate-induced ulcerative colitis in BALB/c mouse assessed as decrease in colon shortening at 5 mg/kg, po twice daily for 6 days relative to control. Also noted: dose 5 mg/kg. Type of series: functional, organism-based.
In series [4] the test system is Mus musculus. The series can be described thus: Inhibition of dextran sodium sulfate-induced ulcerative colitis in BALB/c mouse assessed as decrease in body weight loss at 5 mg/kg, po twice daily for 6 days relative to control. Details: dose 5 mg/kg. The class given is functional, organism-based.
Series [5] is described as follows: Stability at pH 8 to 9 after 24 hrs. Type of series: physicochemical. The settings on record: buffer, pH 8, 24 h.
The test system of series [6] is Mus musculus. The series can be described thus: Inhibition of dextran sodium sulfate-induced ulcerative colitis in BALB/c mouse assessed as decrease in disease activity index at 5 mg/kg, po twice daily for 6 days relative to control. The class given is functional, organism-based. Also noted: dose 5 mg/kg.
The nature of series [7]: Stability at pH 3.4 to 7.4 after 24 hrs. Type of series: physicochemical. The settings on record: buffer, pH 3.4, 24 h.
Series [8] is described as follows: Apparent permeability from basolateral to apical side in human Caco-2 cells by HPLC. Type of series: ADME, cell-based. In general terms: Passage across Caco-2 layers is used to estimate intestinal permeability.
For series [9], the system named is Mus musculus. Description: Toxicity in dextran sodium sulfate treated po dosed BALB/c mouse ulcerative colitis model assessed as reduction in thymus weight to body weight ratio administered twice daily for 6 days relative to control. Particulars: in vivo, 144 h. Type of series: organism-based.
Series [10] concerns Mus musculus. The series can be described thus: Inhibition of dextran sodium sulfate-induced ulcerative colitis in po dosed BALB/c mouse assessed as decrease in disease activity index administered twice daily for 6 days relative to control. The class given is functional, organism-based.
Series [11] concerns Mus musculus. Description: Inhibition of dextran sodium sulfate-induced ulcerative colitis in po dosed BALB/c mouse assessed as decrease in body weight loss administered twice daily for 6 days relative to control. The class given is functional, organism-based.
For series [12], the system named is Mus musculus. The series can be described thus: Inhibition of dextran sodium sulfate-induced ulcerative colitis in po dosed BALB/c mouse assessed as decrease in colon shortening administered twice daily for 6 days relative to control. The class given is functional, organism-based.
Series [13] in a line: Stability assessed as half life at pH 4 by HPLC. Type of series: physicochemical. The settings on record: buffer.
The nature of series [14]: Stability assessed as half life at pH 8 by HPLC. Type of series: physicochemical. Particulars: buffer.
Series [15] can be described thus: Stability assessed as half life at pH 7.4 by HPLC. The class given is physicochemical. The settings on record: buffer.
The nature of series [16]: Stability assessed as half life at pH 2.6 by HPLC. The class given is physicochemical. The settings on record: buffer.
Series [17] is described as follows: Chemical stability assessed as half life at neutrality pH. The class given is physicochemical.

For the compound `C[C@]12C=CC(=O)C=C1CC[C@@H]1[C@@H]2[C@@H](O)C[C@@]2(C)[C@H]1CC[C@]2(O)C(=O)COC(=O)CCc1ccccc1/N=N/c1ccc(O)c(C(=O)O)c1`, the Activity entry with Mus musculus [1] was “Non-toxic”. The Stability entry in series [2] is “Stable”; in series [5] it was “Unstable”; in series [7], “Stable”. Further, the result in the series on Mus musculus [3], in the series on Mus musculus [4] and with Mus musculus [6] was Active. Besides, the Papp B→A in series [8] came out at 14 ×10⁻⁶ cm/s.

As to `C[C@]12C=CC(=O)C=C1CC[C@@H]1[C@@H]2[C@@H](O)C[C@@]2(C)[C@H]1CC[C@]2(O)C(=O)CO` [PREDNISOLONE], the Activity entry in the series with Mus musculus [9] is reported as “Toxic”. In addition, the result with Mus musculus [10], with Mus musculus [11] and in the series on Mus musculus [12] was Active.

Take `C[C@]12CCC(=O)C=C1CC[C@@H]1[C@@H]2[C@@H](O)C[C@@]2(C)[C@H]1CC[C@]2(O)C(=O)COC(=O)CCc1ccccc1N`: the half-life amounted to 30 min in series [13], 44 min in series [14], 73 min in series [15] and 54 min in series [16].

As to `COC(=O)CCc1ccccc1N`, the half-life in series [17] was 57 min.

Take `C[C@]12C=CC(=O)C=C1CC[C@@H]1[C@@H]2[C@@H](O)C[C@@]2(C)[C@H]1CC[C@]2(O)C(=O)COC(=O)Cc1ccccc1/N=N/c1ccc(O)c(C(=O)O)c1`: the Activity entry in the series with Mus musculus [1] was “Non-toxic”. Further, the result with Mus musculus [3], in the series on Mus musculus [4] and with Mus musculus [6] was inactive.
